pIC50: −log10 of the molar value. Where two headings read alike, the source gives them in different places.
Legend:
[1] = target: T1, human leukocyte Cathepsin G (Homo sapiens, UniProt P08311); experiment: Cathepsin G inhibition, fluorogenic substrate, 96 well assay; assay type: biochemical; conditions: human leukocyte cathepsin G 100 ng, 37° C., 60 min, pH 6.6; for IC50: read-out: Amount for 50% inhibition (converted)
T1 construct: human leukocyte Cathepsin G (100 ng protein); from tissue; host or cells: human leukocytes
T1 sequence (P08311 21-244): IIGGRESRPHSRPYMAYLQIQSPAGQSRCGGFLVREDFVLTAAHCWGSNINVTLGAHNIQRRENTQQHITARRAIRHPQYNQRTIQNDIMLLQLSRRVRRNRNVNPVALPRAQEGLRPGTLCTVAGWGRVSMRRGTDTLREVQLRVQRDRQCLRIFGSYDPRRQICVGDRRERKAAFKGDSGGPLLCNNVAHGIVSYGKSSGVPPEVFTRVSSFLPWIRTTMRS
Experimental: Cathepsin G activity was determined using a 96 well assay format in PVC microtitre U-bottom plates with activity determination by a fluorescence plate reader. Briefly, within a total incubation volume of 40 μl, human leukocyte Cathepsin G (100 ng protein) was added to a mixture of inhibitor and the fluorogenic substrate MeOSuc-ala-ala-pro-phe-AMAC in 50 mM-NaOAc buffer, pH 6.6 containing 50 mM NaCl and 0.1% (v/v) Brij 35. The mixture was incubated at 37° C. for 60 min, the reaction stopped by the addition of 40 μl of 250 mM acetic acid and the fluorescence determined with excitation at 360 nm and emitted light measured at 460 nm.
In this table, the linked cyclitol compound identifications are the same as those given in Section A above where the structures of the compounds are also given. With regard to the purity rating, a greater number of asterisks signifies a greater degree of purity with five asterisks signifying an essentially pure compound. The cathepsin G inhibition data are the concentrations of compounds required to inhibit the enzyme by 50%.

[2] = target: T2, human platelet heparanase (Homo sapiens, UniProt Q9Y251); experiment: Heparanase inhibition, 3H-radiolabelled HS cleavage assay; assay type: biochemical; conditions: for inhibition: read-out: Relative inhibition (%); for EC50: heparanase inhibition; for inhibition at 10 µg/mL: read-out: Inhibition (%) at 10 μg/ml
T2 construct: 10 ng of purified human platelet heparanase; from tissue; host or cells: human platelets
T2 sequence (Q9Y251 158-543 limits assumed): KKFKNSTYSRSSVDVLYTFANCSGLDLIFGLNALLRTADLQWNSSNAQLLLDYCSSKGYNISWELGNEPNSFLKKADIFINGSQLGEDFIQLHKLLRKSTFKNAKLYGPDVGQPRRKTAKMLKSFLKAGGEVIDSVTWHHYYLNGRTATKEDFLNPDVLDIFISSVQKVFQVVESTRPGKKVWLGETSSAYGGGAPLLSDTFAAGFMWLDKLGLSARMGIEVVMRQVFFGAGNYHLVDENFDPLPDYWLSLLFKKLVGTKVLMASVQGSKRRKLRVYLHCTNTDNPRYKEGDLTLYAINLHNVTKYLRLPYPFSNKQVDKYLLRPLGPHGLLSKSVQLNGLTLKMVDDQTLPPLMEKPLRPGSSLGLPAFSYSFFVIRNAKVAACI
T2 sequence (Q9Y251 36-109 limits assumed): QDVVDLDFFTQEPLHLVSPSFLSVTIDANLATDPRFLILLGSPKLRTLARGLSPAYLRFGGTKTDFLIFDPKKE
Experimental: Briefly, to an incubation mixture of […] containing ^3H-radiolabelled porcine mucosal HS […], 50 mM-sodium acetate buffer, pH 5.0, […] bovine serum albumin and the inhibitor to be tested, was added 10 ng of purified human platelet heparanase and the mixture incubated for 30 min. The reaction was terminated by freezing the assay tubes. The substrate was separated from the cleavage products on minicolumns of sepharose-bound histidine-rich glycoprotein (Freeman, C., and Parish, C. R. [1997], supra).
Inhibitory activity is based on a comparison with heparin with 100% inhibition at 30 μg/ml. The compounds were also tested at the same purity as in Example 15.

bFGF = bFGF (Homo sapiens, UniProt P09038); experiment: Biacore biosensor: inhibition of bFGF binding to immobilised heparin and heparan sulfate
Experimental: (§1) Assays were performed using a Biacore™ 2000 optical biosensor obtained from Biacore AB, Uppsala, Sweden. The biosensor was operated in accordance with the manufacturer's instructions. Briefly, neutravidin was covalently coupled to the surface of CM5 chips of the biosensor and then either biotinylated heparin (1 μg/ml) or biotinylated heparan sulfate ([…]) bound to the immobilised neutravidin. Mixtures of a test compound and a growth factor or other effector compound were preincubated for 2 to 5 minutes and the mixtures then added to individual biosensor cuvettes. Binding of growth factor or effector compound to the heparin or heparan sulfate was then monitored for approximately 5 minutes with the biosensor.
(§2) The tabulated values are the IC50 in μM or % inhibition of binding of the growth factor to the immobilised heparan sulfate (HS) or heparin.

aFGF = aFGF (Homo sapiens, UniProt P05230); experiment: Biacore biosensor: inhibition of aFGF binding to immobilised heparin and heparan sulfate; conditions: inhibitor 0.034 μM, aFGF 0.025 μM
Experimental: as §1, §2

VEGF = target: T3, VEGF (Homo sapiens, UniProt P15692); experiment: Biacore biosensor: inhibition of VEGF binding to immobilised heparin and heparan sulfate; conditions: inhibitor 0.034 μM, VEGF 0.025 μM
T3 sequence (P15692 27-191 isoform P15692-4): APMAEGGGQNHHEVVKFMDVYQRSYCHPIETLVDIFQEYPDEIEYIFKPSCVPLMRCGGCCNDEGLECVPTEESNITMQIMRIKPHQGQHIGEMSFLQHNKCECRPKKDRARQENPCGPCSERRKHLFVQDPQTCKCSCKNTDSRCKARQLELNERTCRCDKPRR
Experimental: as §1, §2

IL-8 = target: T4, IL-8 (Homo sapiens, UniProt P10145); experiment: Biacore biosensor: inhibition of IL-8 binding to immobilised heparin and heparan sulfate; conditions: inhibitor 1.0 μM, IL-8 0.068 μM
T4 sequence (P10145 21-99): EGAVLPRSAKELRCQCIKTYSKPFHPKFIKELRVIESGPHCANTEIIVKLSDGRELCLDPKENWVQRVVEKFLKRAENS
Experimental: as §1

[3] = based on a comparison with heparin with 100% inhibition at 30 μg/ml
[4] = immobilised heparan sulfate, inhibitor 0.034 μM, bFGF 0.034 μM, read-out: Inhibition of binding of bFGF (HS)
[5] = immobilised heparan sulfate, read-out: IC50, inhibition of bFGF binding (HS)
[6] = immobilised heparin, inhibitor 0.034 μM, bFGF 0.034 μM, read-out: Inhibition of binding of bFGF (Hep)
[7] = immobilised heparin, read-out: IC50, inhibition of bFGF binding (Hep)
[8] = immobilised heparan sulfate, read-out: Inhibition of binding of aFGF (HS)
[9] = immobilised heparin, read-out: Inhibition of binding of aFGF (Hep)
[10] = immobilised heparan sulfate, read-out: Inhibition of binding of VEGF (HS)
[11] = immobilised heparin, read-out: Inhibition of binding of VEGF (Hep)
[12] = immobilised heparan sulfate, read-out: Inhibition of binding of IL-8 (HS)
[13] = immobilised heparin, read-out: Inhibition of binding of IL-8 (Hep)

bFGF, sequence (P09038 134-288 limits assumed, species assumed): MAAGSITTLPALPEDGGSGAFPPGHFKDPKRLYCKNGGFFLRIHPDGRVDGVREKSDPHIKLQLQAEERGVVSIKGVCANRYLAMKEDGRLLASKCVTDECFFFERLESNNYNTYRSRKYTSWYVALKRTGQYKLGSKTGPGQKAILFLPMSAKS
aFGF, sequence (P05230 whole entry, species assumed): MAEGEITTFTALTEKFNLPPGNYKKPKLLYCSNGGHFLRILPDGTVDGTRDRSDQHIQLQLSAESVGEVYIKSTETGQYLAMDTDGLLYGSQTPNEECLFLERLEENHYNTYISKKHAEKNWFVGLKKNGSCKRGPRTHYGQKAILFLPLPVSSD

Row | SMILES | IC50 [1] [nM] | inhibition [2, 3] [%] | EC50 ([2]; read-out: EC50 (converted)) [nM] | inhibition at 10 µg/mL [2] [%] | inhibition at 0.034 µM (bFGF; [4]) [%] | pIC50 (bFGF; [5]) | inhibition at 0.034 µM (bFGF; [6]) [%] | pIC50 (bFGF; [7]) | inhibition at 0.034 µM (aFGF; [8]) [%] | inhibition at 0.034 µM (aFGF; [9]) [%] | inhibition at 0.034 µM (VEGF; [10]) [%] | inhibition at 0.034 µM (VEGF; [11]) [%] | inhibition at 1 µM (IL-8; [12]) [%] | inhibition at 1 µM (IL-8; [13]) [%] | other results
1 | O=S(=O)(O)O[C@H]1[C@H](OS(=O)(=O)O)[C@@H](N(CCN([C@H]2C=C[C@@H](OS(=O)(=O)O)[C@@H](OS(=O)(=O)O)[C@@H]2OS(=O)(=O)O)[C@H]2C=C[C@@H](OS(=O)(=O)O)[C@@H](OS(=O)(=O)O)[C@@H]2OS(=O)(=O)O)[C@H]2C=C[C@@H](OS(=O)(=O)O)[C@@H](OS(=O)(=O)O)[C@@H]2OS(=O)(=O)O)C=C[C@H]1OS(=O)(=O)O [Compound 4f] | 189 | 60 | 11100 | 44 | 19 | 6.62 | 15 | < 6.60 | 68 | 65 | 0 | 0 | 38 | 48 | –
2 | O=S(=O)(O)O[C@H]1[C@H](OS(=O)(=O)O)[C@@H](N(CCCCN([C@H]2C=C[C@@H](OS(=O)(=O)O)[C@@H](OS(=O)(=O)O)[C@@H]2OS(=O)(=O)O)[C@H]2C=C[C@@H](OS(=O)(=O)O)[C@@H](OS(=O)(=O)O)[C@@H]2OS(=O)(=O)O)[C@H]2C=C[C@@H](OS(=O)(=O)O)[C@@H](OS(=O)(=O)O)[C@@H]2OS(=O)(=O)O)C=C[C@H]1OS(=O)(=O)O [Compound 4g] | 128 | 57 | 14100 | 42 | 44 | – | 31 | < 6.60 | 43 | 44 | 10 | 21 | 42 | 67 | –
3 | O=S(=O)(O)OC1C(OS(=O)(=O)O)C(OS(=O)(=O)O)C(N(Cc2cccc(CN(C3C(OS(=O)(=O)O)C(OS(=O)(=O)O)C(OS(=O)(=O)O)C(OS(=O)(=O)O)C3OS(=O)(=O)O)C3C(OS(=O)(=O)O)C(OS(=O)(=O)O)C(OS(=O)(=O)O)C(OS(=O)(=O)O)C3OS(=O)(=O)O)c2)C2C(OS(=O)(=O)O)C(OS(=O)(=O)O)C(OS(=O)(=O)O)C(OS(=O)(=O)O)C2OS(=O)(=O)O)C(OS(=O)(=O)O)C1OS(=O)(=O)O (stereo not drawn) [Compound 5d] | – | – | – | – | – | 7.42 | – | 6.80 | – | – | – | – | – | – | Amount for 50% inhibition [1]: 0.53 µg/mL; Relative inhibition (%) [2, 3]: 100%; EC50 [2]: 6 µg/mL; Inhibition of binding of bFGF (HS) (bFGF; immobilised heparan sulfate, inhibitor 0.034 μM, bFGF 0.034 μM): 48% (HS); Inhibition of binding of bFGF (Hep) (bFGF; immobilised heparin, inhibitor 0.034 μM, bFGF 0.034 μM): 35% (Hep); Inhibition of binding of aFGF (HS) (aFGF; immobilised heparan sulfate): 67% (HS); Inhibition of binding of aFGF (Hep) (aFGF; immobilised heparin): 72% (Hep); Inhibition of binding of VEGF (HS) (VEGF; immobilised heparan sulfate): 39% (HS); Inhibition of binding of VEGF (Hep) (VEGF; immobilised heparin): 54% (Hep); Inhibition of binding of IL-8 (HS) (IL-8; immobilised heparan sulfate): 62% (HS); Inhibition of binding of IL-8 (Hep) (IL-8; immobilised heparin): 71% (Hep)
4 | O=S(=O)(O)O[C@H]1[C@H](OS(=O)(=O)O)[C@@H](N(CCCCCCCCCCN([C@H]2C=C[C@@H](OS(=O)(=O)O)[C@@H](OS(=O)(=O)O)[C@@H]2OS(=O)(=O)O)[C@H]2C=C[C@@H](OS(=O)(=O)O)[C@@H](OS(=O)(=O)O)[C@@H]2OS(=O)(=O)O)[C@H]2C=C[C@@H](OS(=O)(=O)O)[C@@H](OS(=O)(=O)O)[C@@H]2OS(=O)(=O)O)C=C[C@H]1OS(=O)(=O)O [Compound 4c] | 158 | 45 | 25500 | – | 43 | – | 34 | – | 21 | 26 | 53 | 62 | 77 | 76 | –

— patent US7173019B2, “Linked cyclitols and their polysulfated derivatives” (The Australian National University, priority 2001, dated 2007)
